In PubChem BioAssay AID1745844 (Carcinogenic Potency Database (CPDB), 2022):
Calls of active or inactive are those of the source. No rule for the calls is given here.

Tested on: rodent lifetime carcinogenesis bioassay, tumor incidence TD50
Assay: chronic cancer bioassays in animals – CPDB, compiled studies (AID 1745844)

O=Nc1ccc(NO)cc1
TD50 (mouse, strain B6C3F1, females, in feed, site: any site (literature study), lesion: several types, types named in the paper, dosed 104 weeks, study length 105 weeks): 6710 mg/kg/day (inactive) | TD50 (mouse, strain B6C3F1, females, in feed, site: liver, lesion: hepatocellular adenoma + hepatocellular carcinoma + neoplastic nodule, dosed 104 weeks, study length 105 weeks): 656 mg/kg/day | TD50 (mouse, strain B6C3F1, females, in feed, site: lung, lesion: alveolar/bronchiolar adenoma + alveolar/bronchiolar carcinoma, dosed 104 weeks, study length 105 weeks): 6660 mg/kg/day | TD50 (mouse, strain B6C3F1, males, in feed, site: any site (literature study), lesion: several types, types named in the paper, dosed 104 weeks, study length 105 weeks): 936 mg/kg/day (inactive) | TD50 (mouse, strain B6C3F1, males, in feed, site: liver, lesion: hepatocellular adenoma + hepatocellular carcinoma + neoplastic nodule, dosed 104 weeks, study length 105 weeks): 1.23e+06 mg/kg/day | TD50 (rat, strain Fischer 344, females, in feed, site: urinary bladder, lesion: squamous-cell carcinoma + transitional-cell carcinoma + transitional-cell papilloma, dosed 104 weeks, study length 105 weeks): 106 mg/kg/day | TD50 (rat, strain Fischer 344, females, in feed, site: urinary bladder, lesion: transitional-cell carcinoma, dosed 104 weeks, study length 105 weeks): 182 mg/kg/day | TD50 (rat, strain Fischer 344, males, in feed, site: any site (literature study), lesion: several types, types named in the paper, dosed 104 weeks, study length 105 weeks): 349 mg/kg/day (inactive) | TD50 (rat, strain Fischer 344, males, in feed, site: liver, lesion: hepatocellular adenoma + hepatocellular carcinoma + neoplastic nodule, dosed 104 weeks, study length 105 weeks): 1130 mg/kg/day

Cc1ccccc1S(N)(=O)=O
TD50 (rat, strain Charles River CD (Sprague-Dawley), females, in feed, site: liver, lesion: Kupffer-cell sarcoma, dosed 142 weeks, study length 142 weeks): 8520 mg/kg/day | TD50 (rat, strain Charles River CD (Sprague-Dawley), females, in feed, site: liver, lesion: neoplastic nodule, dosed 142 weeks, study length 142 weeks): 21700 mg/kg/day | TD50 (rat, strain Charles River CD (Sprague-Dawley), females, in feed, site: mammary gland, lesion: adenocarcinoma, dosed 142 weeks, study length 142 weeks): 12.2 mg/kg/day | TD50 (rat, strain Charles River CD (Sprague-Dawley), males, in feed, site: liver, lesion: angiosarcoma, dosed 142 weeks, study length 142 weeks): 17200 mg/kg/day | TD50 (rat, strain Charles River CD (Sprague-Dawley), males, in feed, site: liver, lesion: neoplastic nodule, dosed 142 weeks, study length 142 weeks): 35900 mg/kg/day | TD50 (rat, strain Sprague-Dawley, both sexes, in feed, site: all sites, lesion: leukemia, dosed 133 weeks, study length 142 weeks): 375 mg/kg/day | TD50 (rat, strain Sprague-Dawley, both sexes, in feed, site: any site (literature study), lesion: malignant tumor, dosed 133 weeks, study length 142 weeks): 13300 mg/kg/day | TD50 (rat, strain Sprague-Dawley, both sexes, in feed, site: urinary bladder, lesion: several types, types named in the paper, dosed 133 weeks, study length 142 weeks): 3960 mg/kg/day | carcinogen call (rat, strain Wistar, females, in drinking water, site: liver, lesion: hepatocellular carcinoma, dosed 102 weeks, study length 102 weeks): negative (inactive)

BrC(Br)Br
TD50 (mouse, strain B6C3F1, females, by gavage, site: liver + spleen, lesion: hemangiosarcoma, dosed 103 weeks, study length 106 weeks): 1110 mg/kg/day (inactive) | TD50 (mouse, strain B6C3F1, females, by gavage, site: liver, lesion: hepatocellular adenoma + hepatocellular carcinoma + neoplastic nodule, dosed 103 weeks, study length 106 weeks): 570 mg/kg/day | TD50 (mouse, strain B6C3F1, males, by gavage, site: any site (literature study), lesion: several types, types named in the paper, dosed 103 weeks, study length 106 weeks): 41 mg/kg/day | TD50 (mouse, strain B6C3F1, males, by gavage, site: liver, lesion: hepatocellular adenoma + hepatocellular carcinoma + neoplastic nodule, dosed 103 weeks, study length 106 weeks): 53.6 mg/kg/day | TD50 (mouse, strain B6C3F1, males, by gavage, site: lung, lesion: alveolar/bronchiolar adenoma + alveolar/bronchiolar carcinoma, dosed 103 weeks, study length 106 weeks): 2450 mg/kg/day | TD50 (mouse, strain B6C3F1, males, by gavage, site: subcutaneous tissue, lesion: fibrosarcoma + sarcoma, dosed 103 weeks, study length 106 weeks): 81.9 mg/kg/day (inactive) | TD50 (rat, strain Fischer 344, females, by gavage, site: large intestine, lesion: adenocarcinoma + polypoid adenoma, dosed 103 weeks, study length 106 weeks): 469 mg/kg/day | TD50 (rat, strain Fischer 344, females, by gavage, site: large intestine, lesion: polypoid adenoma, dosed 103 weeks, study length 106 weeks): 632 mg/kg/day | TD50 (rat, strain Fischer 344, females, by gavage, site: liver, lesion: hepatocellular adenoma + hepatocellular carcinoma + neoplastic nodule, dosed 103 weeks, study length 106 weeks): 676 mg/kg/day | TD50 (rat, strain Fischer 344, males, by gavage, site: any site (literature study), lesion: several types, types named in the paper, dosed 103 weeks, study length 105 weeks): 513 mg/kg/day | TD50 (rat, strain Fischer 344, males, by gavage, site: large intestine, lesion: adenocarcinoma + polypoid adenoma, dosed 103 weeks, study length 105 weeks): 1050 mg/kg/day | TD50 (rat, strain Fischer 344, males, by gavage, site: testis, lesion: interstitial-cell adenoma, bilateral + interstitial-cell adenoma, dosed 103 weeks, study length 105 weeks): 75 mg/kg/day | TD50 (rat, strain Fischer 344, males, by gavage, site: thyroid gland, lesion: follicular-cell carcinoma, dosed 103 weeks, study length 105 weeks): 656 mg/kg/day

F
carcinogen call (mouse, strain B6C3F1, females, in drinking water, site: any site (literature study), lesion: several types, types named in the paper, dosed 103 weeks, study length 104 weeks): negative (inactive) | carcinogen call (mouse, strain B6C3F1, males, in drinking water, site: any site (literature study), lesion: several types, types named in the paper, dosed 103 weeks, study length 104 weeks): negative (inactive) | carcinogen call (mouse, strain Charles River CD1, both sexes, in drinking water, site: any site (literature study), lesion: malignant tumor, dosed 129 weeks, study length 129 weeks): negative (inactive) | carcinogen call (mouse, strain Charles River CD1, both sexes, in drinking water, site: any site (literature study), lesion: one or several types, types not named, dosed 129 weeks, study length 129 weeks): negative (inactive) | carcinogen call (mouse, strain Charles River CD1, both sexes, in drinking water, site: liver, lesion: one or several types, types not named, dosed 129 weeks, study length 129 weeks): negative (inactive) | carcinogen call (mouse, strain Charles River CD1, both sexes, in drinking water, site: lung, lesion: one or several types, types not named, dosed 129 weeks, study length 129 weeks): negative (inactive) | carcinogen call (mouse, strain DBA, females, in feed, site: mammary gland, lesion: carcinoma, dosed 90 weeks, study length 90 weeks): negative (inactive) | TD50 (rat, strain Fischer 344, females, in drinking water, site: any site (literature study), lesion: several types, types named in the paper, dosed 103 weeks, study length 104 weeks): 73.9 mg/kg/day (inactive) | TD50 (rat, strain Fischer 344, males, in drinking water, site: any site (literature study), lesion: several types, types named in the paper, dosed 103 weeks, study length 104 weeks): 147 mg/kg/day | TD50 (rat, strain Fischer 344, males, in drinking water, site: coccyx + humerus + subcutaneous tissue + vertebra, lesion: osteosarcoma, dosed 103 weeks, study length 104 weeks): 82.7 mg/kg/day | TD50 (rat, strain Fischer 344, males, in drinking water, site: coccyx + humerus + vertebra, lesion: osteosarcoma, dosed 103 weeks, study length 104 weeks): 109 mg/kg/day

CN(C)c1ccc(N=Nc2ccccc2)cc1
TD50 (monkey, strain Rhesus [Macaca mulatta], both sexes, in feed, site: any site (literature study), lesion: malignant tumor, dosed 258 weeks, study length 1019 weeks): 17.2 mg/kg/day | TD50 (monkey, strain Rhesus [Macaca mulatta], both sexes, in feed, site: lung, lesion: alveolar/bronchiolar carcinoma, dosed 258 weeks, study length 1019 weeks): 4.84 mg/kg/day | TD50 (rat, strain Wistar albino, females, in feed, site: liver, lesion: bile duct tumor, dosed 33 weeks, study length 56 weeks): 4.9 mg/kg/day | TD50 (rat, strain Wistar albino, females, in feed, site: liver, lesion: hepatoma, dosed 33 weeks, study length 56 weeks): 3.31 mg/kg/day | TD50 (rat, strain Wistar albino, females, in feed, site: liver, lesion: liver-cell carcinoma, dosed 33 weeks, study length 56 weeks): 7.42 mg/kg/day

Nc1ccc(N=Nc2ccc(N)cc2)cc1
carcinogen call (mouse, strain BALB/cLacDp, females, in feed, site: liver, lesion: several types, types named in the paper, dosed 60 weeks, study length 132 weeks): negative (inactive) | TD50 (mouse, strain BALB/cLacDp, females, in feed, site: lung, lesion: several types, types named in the paper, dosed 60 weeks, study length 132 weeks): 240 mg/kg/day (inactive) | carcinogen call (mouse, strain BALB/cLacDp, males, in feed, site: liver, lesion: several types, types named in the paper, dosed 60 weeks, study length 132 weeks): negative (inactive) | TD50 (mouse, strain BALB/cLacDp, males, in feed, site: lung, lesion: several types, types named in the paper, dosed 60 weeks, study length 132 weeks): 213 mg/kg/day (inactive)

CCC(C)[C@H]1O[C@]2(CC[C@@H]1C)CC1C[C@@H](C/C=C(\C)[C@@H](O[C@H]3C[C@H](OC)[C@@H](OC4C[C@H](OC)[C@@H](O)[C@H](C)O4)[C@H](C)O3)[C@@H](C)/C=C/C=C3\CO[C@@H]4[C@H](O)C(C)=C[C@@H](C(=O)O1)[C@]34O)O2 (stereo partly drawn) (tested in a mixture with another compound)
carcinogen call (rat, strain Wistar, males, in feed, site: forestomach, lesion: one or several types, types not named, dosed 52 weeks, study length 52 weeks): negative (inactive)

OC(Cn1cncn1)(Cn1cncn1)c1ccc(F)cc1F
carcinogen call (mouse, strain Charles River CD1, females, in feed, site: any site (literature study), lesion: several types, types named in the paper, dosed 104 weeks, study length 104 weeks): negative (inactive) | TD50 (mouse, strain Charles River CD1, females, in feed, site: liver, lesion: hepatocellular adenoma, dosed 104 weeks, study length 104 weeks): 129 mg/kg/day (inactive) | carcinogen call (mouse, strain Charles River CD1, females, in feed, site: liver, lesion: hepatocellular carcinoma, dosed 104 weeks, study length 104 weeks): negative (inactive) | TD50 (mouse, strain Charles River CD1, males, in feed, site: any site (literature study), lesion: several types, types named in the paper, dosed 104 weeks, study length 104 weeks): 239 mg/kg/day (inactive) | TD50 (mouse, strain Charles River CD1, males, in feed, site: liver, lesion: hepatocellular adenoma, dosed 104 weeks, study length 104 weeks): 144 mg/kg/day (inactive) | carcinogen call (mouse, strain Charles River CD1, males, in feed, site: liver, lesion: hepatocellular carcinoma, dosed 104 weeks, study length 104 weeks): negative (inactive) | carcinogen call (rat, strain Charles River CD (Sprague-Dawley), females, in feed, site: any site (literature study), lesion: several types, types named in the paper, dosed 104 weeks, study length 104 weeks): negative (inactive) | TD50 (rat, strain Charles River CD (Sprague-Dawley), females, in feed, site: liver, lesion: hepatocellular adenoma, dosed 104 weeks, study length 104 weeks): 298 mg/kg/day (inactive) | carcinogen call (rat, strain Charles River CD (Sprague-Dawley), females, in feed, site: liver, lesion: hepatocellular carcinoma, dosed 104 weeks, study length 104 weeks): negative (inactive) | TD50 (rat, strain Charles River CD (Sprague-Dawley), females, in feed, site: mammary gland, lesion: adenoma, dosed 104 weeks, study length 104 weeks): 412 mg/kg/day (inactive) | carcinogen call (rat, strain Charles River CD (Sprague-Dawley), females, in feed, site: mammary gland, lesion: carcinoma, dosed 104 weeks, study length 104 weeks): negative (inactive) | carcinogen call (rat, strain Charles River CD (Sprague-Dawley), females, in feed, site: mammary gland, lesion: fibroadenoma, dosed 104 weeks, study length 104 weeks): negative (inactive) | carcinogen call (rat, strain Charles River CD (Sprague-Dawley), females, in feed, site: mammary gland, lesion: several types, types named in the paper, dosed 104 weeks, study length 104 weeks): negative (inactive) | carcinogen call (rat, strain Charles River CD (Sprague-Dawley), males, in feed, site: adrenal medulla, lesion: pheochromocytoma, dosed 104 weeks, study length 104 weeks): negative (inactive) | carcinogen call (rat, strain Charles River CD (Sprague-Dawley), males, in feed, site: any site (literature study), lesion: several types, types named in the paper, dosed 104 weeks, study length 104 weeks): negative (inactive) | TD50 (rat, strain Charles River CD (Sprague-Dawley), males, in feed, site: liver, lesion: hepatocellular adenoma, dosed 104 weeks, study length 104 weeks): 80.7 mg/kg/day
